{
  "source": "patent US20250108119A1",
  "about": "“NOVEL STEROID PAYLOADS, STEROID LINKERS, ADCs CONTAINING AND USE THEREOF” (IMMUNEXT, INC., priority 2021, published 2025)",
  "test_system": "LPS stimulated human PBMCs",
  "assay": "LPS stimulated human PBMC, IL-1β and IL-6 ELISA",
  "type": "cell-based",
  "details": "for inhibition of IL-1β production / inhibition of IL-1β and IL-6 production: 24 hr; for inhibition of IL-1β and IL-6 production: Experiment 1: free payload 1000-1 nM, 1 ng/ml LPS",
  "description": "The potency of novel steroids was assessed in a model of LPS stimulated human peripheral blood mononuclear cells (PBMCS). Stimulated PBMCs in this assay produce multiple pro-inflammatory cytokines1.\nIn all the following experiments, human PBMC, isolated from 1-2 healthy donors per study, were stimulated with LPS to induce cytokine production.\nLPS was added either immediately after addition of free payload, or in the case of conjugates, four hours after addition of the conjugate.\nCells were plated in flat bottom 96 well plates at a final concentration of 150,000 cells/well, with technical duplicates for each condition.\nTest agents were serially diluted in the assay media and added to a final concentration of 1,000 nM-1 nM or 0.2 nM depending on the assay or as a no treatment control.\nLPS stimulation was added to a final concentration of 1 ng/ml.\nHuman IL-1β and IL-6 ELISA kits were used on supernatants according to vendor protocols. All graphs were prepared with GraphPad (Prism).",
  "key": {"[1]": {"details": "Experiment 6: free payload 1000-0.16 nM"}},
  "data": [
    {"smiles": "C[C@]12C=CC(=O)C=C1CC[C@@H]1[C@@H]2[C@@H](O)C[C@@]2(C)[C@H]1C[C@H]1O[C@@H](c3ccc(CC4CC5(C4)CC(NC(=O)[C@H](CCC(=O)O)NC(=O)CNC(=O)CBr)C5)cc3)O[C@]12C(=O)COP(=O)(O)O", "note": "(stereo partly drawn) [INX A7, (S)-4-(2-(2-bromoacetamido)acetamido)-5-((6-(4-((6aR,6bS,7S,8aS,8bS,10R,11aR,12aS,12bS)-7-hydroxy-6a,8a-dimethyl-4-oxo-8b-(2-(phosphonooxy)acetyl)-2,4,6a,6b,7,8,8a,8b,11a,12,12a,12b-dodecahydro-1H-naphtho[2′,1′:4,5]indeno[1,2-d][1,3]dioxol-10-yl)benzyl)spiro[3.3]heptan-2-yl)amino)-5-oxopentanoic acid]", "values": [
      {"measurement": "potency of conjugated linker payloads over INX J (conclusions)", "result": "enhanced potency"}
    ]},
    {"smiles": "C[C@]12C=CC(=O)C=C1CC[C@@H]1[C@@H]2[C@@H](O)C[C@@]2(C)[C@H]1C[C@H]1O[C@@H](c3ccc(CC4CC45CCC(NC(=O)[C@H](CCC(=O)O)NC(=O)CNC(=O)CBr)CC5)cc3)O[C@]12C(=O)CO", "note": "(stereo partly drawn) [INX A9, (4S)-4-(2-(2-bromoacetamido)acetamido)-5-((1-(4-((6aR,6bS,7S,8aS,8bS,10R,11aR,12aS,12bS)-7-hydroxy-8b-(2-hydroxyacetyl)-6a,8a-dimethyl-4-oxo-2,4,6a,6b,7,8,8a,8b,11a,12,12a,12b-dodecahydro-1H-naphtho[2′,1′:4,5]indeno[1,2-d][1,3]dioxol-10-yl)benzyl)spiro[2.5]octan-6-yl)amino)-5-oxopentanoic acid]", "values": [
      {"measurement": "potency of conjugated linker payloads over INX J (conclusions)", "result": "enhanced potency"}
    ]},
    {"smiles": "C[C@]12C=CC(=O)C=C1[C@@H](F)C[C@H]1[C@@H]3C[C@H]4O[C@@H](c5ccc(CC6CC7(C6)CC(NC(=O)[C@H](CCC(=O)O)NC(=O)CNC(=O)CBr)C7)cc5)O[C@@]4(C(=O)COP(=O)(O)O)[C@@]3(C)C[C@H](O)[C@@]12F", "note": "(stereo partly drawn) [INX A12, (S)-4-(2-(2-bromoacetamido)acetamido)-5-((6-(4-((2S,6aS,6bR,7S,8aS,8bS,10R,11aR,12aS,12bS)-2,6b-difluoro-7-hydroxy-6a,8a-dimethyl-4-oxo-8b-(2-(phosphonooxy)acetyl)-2,4,6a,6b,7,8,8a,8b,11a,12,12a,12b-dodecahydro-1H-naphtho[2′,1′:4,5]indeno[1,2-d][1,3]dioxol-10-yl)benzyl)spiro[3.3]heptan-2-yl)amino)-5-oxopentanoic acid]", "values": [
      {"measurement": "potency of conjugated linker payloads over INX J (conclusions)", "result": "enhanced potency"}
    ]},
    {"smiles": "C[C@]12C=CC(=O)C=C1CC[C@H]1[C@@H]3C[C@H]4O[C@@H](c5ccc(CC67CC(N)(C6)C7)cc5)O[C@@]4(C(=O)CO)[C@@]3(C)C[C@H](O)[C@@]12F", "note": "[INX-SM-13, (6aS,6bR,7S,8aS,8bS,10R,11aR,12aS,12bS)-10-(4-((3-aminobicyclo[1.1.1]pentan-1-yl)methyl)phenyl)-6b-fluoro-7-hydroxy-8b-(2-hydroxyacetyl)-6a,8a-dimethyl-1,2,6a,6b,7,8,8a,8b,11a,12,12a,12b-dodecahydro-4H-naphtho[2′,1′:4,5]indeno[1,2-d][1,3]dioxol-4-one]", "values": [
      {"measurement": "inhibition of IL-1β production", "setting": "[1]", "result": "did not lead to increased potency over the non-fluorinated payload"}
    ]},
    {"smiles": "C[C@]12C=CC(=O)C=C1[C@@H](F)C[C@H]1[C@@H]3C[C@H]4O[C@@H](c5ccc(CC67CC(N)(C6)C7)cc5)O[C@@]4(C(=O)CO)[C@@]3(C)C[C@H](O)[C@@]12F", "note": "[INX-SM-24, (2S,6aS,6bR,7S,8aS,8bS,10R,11aR,12aS,12bS)-10-(4-((3-aminobicyclo[1.1.1]pentan-1-yl)methyl)phenyl)-2,6b-difluoro-7-hydroxy-8b-(2-hydroxyacetyl)-6a,8a-dimethyl-1,2,6a,6b,7,8,8a,8b,11a,12,12a,12b-dodecahydro-4H-naphtho[2′,1′:4,5]indeno[1,2-d][1,3]dioxol-4-one]", "values": [
      {"measurement": "inhibition of IL-1β production", "setting": "[1]", "result": "increased potency over the non-fluorinated INX-SM-3"}
    ]},
    {"smiles": "C[C@]12C=CC(=O)C=C1CC[C@@H]1[C@@H]2[C@@H](O)C[C@@]2(C)[C@H]1C[C@H]1O[C@H](c3ccc(CC45CC(N)(C4)C5)cc3)O[C@]12C(=O)CO", "note": "[INX-SM-53, (6aR,6bS,7S,8aS,8bS,10S,11aR,12aS,12bS)-10-(4-((3-aminobicyclo[1.1.1]pentan-1-yl)methyl)phenyl)-7-hydroxy-8b-(2-hydroxyacetyl)-6a,8a-dimethyl-1,2,6a,6b,7,8,8a,8b, 11a,12,12a,12b-dodecahydro-4H-naphtho[2′,1′:4,5]indeno[1,2-d][1,3]dioxol-4-one]", "values": [
      {"measurement": "inhibition of IL-1β and IL-6 production", "setting": "n=1 donor", "result": "did not show inhibition"}
    ]},
    {"smiles": "C[C@]12C=CC(=O)C=C1CC[C@@H]1[C@@H]2[C@@H](O)C[C@@]2(C)[C@H]1C[C@H]1O[C@H](C34CC(Cc5cccc(N)c5)(C3)C4)O[C@]12C(=O)CO", "note": "[INX-SM-54, (6aR,6bS,7S,8aS,8bS,10S,11aR,12aS,12bS)-10-(3-(3-aminobenzyl)bicyclo[1.1.1]pentan-1-yl)-7-hydroxy-8b-(2-hydroxyacetyl)-6a,8a-dimethyl-1,2,6a,6b,7,8,8a,8b,11a,12,12a,12b-dodecahydro-4H-naphtho[2′,1′:4,5]indeno[1,2-d][1,3]dioxol-4-one]", "values": [
      {"measurement": "inhibition of IL-1β and IL-6 production", "setting": "n=1 donor", "result": "did not show inhibition"}
    ]},
    {"smiles": "C[C@]12C=CC(=O)C=C1CC[C@@H]1[C@@H]2[C@@H](O)C[C@@]2(C)[C@H]1C[C@H]1O[C@H](c3cnc(Cc4cccc(N)c4)s3)O[C@]12C(=O)CO", "note": "[INX-SM-56, (6aR,6bS,7S,8aS,8bS,10S,11aR,12aS,12bS)-10-(2-(3-aminobenzyl)thiazol-5-yl)-7-hydroxy-8b-(2-hydroxyacetyl)-6a,8a-dimethyl-1,2,6a,6b,7,8,8a,8b, 11a,12,12a,12b-dodecahydro-4H-naphtho[2′,1′:4,5]indeno[1,2-d][1,3]dioxol-4-one]", "values": [
      {"measurement": "inhibition of IL-1β production", "setting": "Experiment 2: free payload 1000-1 nM, n=1 donor", "result": "did not show inhibition"}
    ]},
    {"smiles": "C[C@]12C=CC(=O)C=C1[C@@H](F)C[C@H]1[C@@H]3C[C@H]4O[C@H](c5ccc(CC67CC(N)(C6)C7)cc5)O[C@@]4(C(=O)CO)[C@@]3(C)C[C@H](O)[C@@]12F", "note": "[INX-SM-74, (2S,6aS,6bR,7S,8aS,8bS,10S,11aR,12aS,12bS)-10-(4-((3-aminobicyclo[1.1.1]pentan-1-yl)methyl)phenyl)-2,6b-difluoro-7-hydroxy-8b-(2-hydroxyacetyl)-6a,8a-dimethyl-1,2,6a,6b,7,8,8a,8b,11a,12,12a,12b-dodecahydro-4H-naphtho[2′,1′:4,5]indeno[1,2-d][1,3]dioxol-4-one]", "values": [
      {"measurement": "potency of free payloads (conclusions)", "result": "moderate potency albeit much weaker than the R stereoisomer with the same halogenation"}
    ]}
  ]
}
